Reference: patent US20160369234A1, “CONVERSION OF SOMATIC CELLS TO INDUCED REPROGRAMMED NEURAL STEM CELLS (IRNSCS)” (Hoffmann-La Roche Inc., priority 2010, published 2016)

What was measured:
Format in all cases: cell-based
Human fibroblasts IMR90 [1] = experiment: Pre-treatment of human fibroblasts with Valproic Acid before infection, yield of GFP+ irNSC neurospheres (FIG. 12); conditions: VPA 1 mM pre-treatment 48 hours vs without; Day 7; n=3
Protocol: FIG. 12: Pre-treatment of human fibroblasts with Valproic Acid (VPA) improves the yield of GFP+ irNSC neurospheres. Human fibroblasts IMR90 were pre-treated for 48 hours with or without the HDAC inhibitor Valproic Acid (2-propyl-pentanoic acid, monosodium salt) (1 mM) prior infection with: Sox2, Bmi1, nestin GFP reporter. Induction medium (NeuroCult® NS-A Proliferation Kit (Human, StemCells Technologies) with FGF, EGF BDNF 20 ng/ml; Heparin 2 μg/ml; Balanol-like-324 2 μM). Day 7: The Neurospheres bigger than 50 μm were counted (Panel A) and the average number of GFP+ irNSC per neurosphere is reported (Panel B). Representative pictures for the irNSCs neuropheres generated with the VPA pre-treatment (Panel C).
To increase the yield of irNSCs, human fibroblasts were pretreated with or without the HDAC inhibitor Valproic Acid (VPA, 2-propyl-pentanoic acid, monosodium salt). Towards this end, the human fibroblasts were incubated in DMEM/F12 supplemented with FBS 10% and L-glutamine supplemented with 1 mM VPA prior to infection (FIG. 12).

human fibroblasts = experiment: Reprogramming of human fibroblasts to irNSCs with or without Fasudil in induction medium, neurosphere count (FIG. 6); conditions: Fasudil added to induction medium, nestin reporter lentivirus; day 3
From the text: The method can be illustrated by reference to FIG. 1 herein, which depicts a method according to the invention being used for converting human fibroblasts to neural stem cells (NSCs). In this method human fibroblast were trypsinized at day 0, counted and their viability determined. Between 1.0×10^5-3.0×10^5 trypsinized fibroblasts were then resuspended in the induction medium and the combination of genes delivered as lentiviruses. At the induction medium polybrene (hexadimethrine bromide) was added to increase the efficiency of the lentiviruses transduction. The infection was performed for 15 minutes in an eppendorf tube. In combination with the genes, a human Nestin GFP reporter was used. Nestin is a well known marker expressed specifically in NSCs. In the nestin reporter the fluorescent protein GFP is under expression of the human nestin promoter (FIG. 2), therefore it allows an easy screen for induced reprogrammed neural stem cells (irNSCs) GFP+.
The infected cells were plated in tissue culture plates using a concentration of 10000-30000 cells/cm^2 in the appropriate volume of induction medium. At day 1 the total induction medium was renewed. It was possible to identify some irNSC GFP+ (FIG. 3) with a clear change in morphology compared to the human fibroblasts. The irNSCs GFP+ acquired a bipolar and elongated morphology with a more condensed cytoplasm, typical of NSCs. […]

[2] = test system: irNSC neurospheres from human fibroblasts IMR90; experiment: Expansion of irNSC neurospheres with or without Fasudil in expansion medium (FIG. 9); conditions: expansion medium with Fasudil vs without; Day 15
Protocol: FIG. 9: Generation of a batch of irNSC neurospheres for expansion and characterization. 3.6 million human fibroblasts IMR90 were trypsinized and infected in a small volume with: Sox2, Bmi1, nestin GFP reporter using the induction medium (N2B27 with FGF, EGF 30 ng/ml BDNF 20 ng/ml) supplemented with Fasudil 10 μM and Polybrene 4 μg/ml. From Day 4 to Day 8: The GFP+ neurospheres bigger than 50 μm were harvested and further used for expansion. Half of the neurospheres have been expanded using the expansion medium (N2B27 with FGF, EGF 30 ng/ml BDNF 20 ng/ml) with Fasudil and the other half without Fasudil.
The irNSCs have a typical NSC morphology and were Sox2 and Nestin positive (FIG. 10).
Expansion Medium: N2B27 supplemented with human EGF (Peprotech) 30 ng/ml, human FGF2 30 ng/ml (Peprotech), human BDNF (Roche) 20 ng/ml, or
1. […]

Human fibroblasts IMR90 [3] = experiment: Generation of GFP+ irNSC neurospheres, Fasudil versus Balanol-like-324 compound in induction medium (FIG. 11)
Protocol: FIG. 11: Comparison of Fasudil versus Balanol-like-324 compound stimulation to generate irNSC neurospheres. Human fibroblasts IMR90 were trypsinized and infected in a small volume with: Sox2, Bmi1, nestin GFP reporter using the induction medium (NeuroCult® NS-A Proliferation Kit (Human, StemCells Technologies) with FGF, EGF BDNF 20 ng/ml; Heparin 2 μg/ml; Polybrene 4 μg/ml) supplemented with Fasudil 10 μM (hatched graph) or Balanol-like-324 compound 2 μM (black graph). Fibroblasts were plated in a normal tissue culture plate at a concentration of 10000-30000 cells/cm^2. Day 1: Media change with fresh induction medium. Day 4: The GFP+ neurospheres bigger than 50 μm were counted.
Induction Medium: N2B27 (N2B27 is a 1:1 mixture of DMEM/F12 (Gibco, Paisley, UK) supplemented with N2 and B27 (both from Gibco) supplemented with human EGF (Peprotech) 30 ng/ml, human FGF2 30 ng/ml (Peprotech), human BDNF (Roche) 20 ng/ml and Fasudil (Calbiochem) 10 μM or Balanol-like-324 compound (N-{(3R,4R)-4-[4-(2-Fluoro-6-hydroxy-3-methoxy-benzoyl)-benzoylamino]-azepan-3-yl}-4-hydroxy-3,5-dimethyl-benzamide) 2 μM.
1. Generation of the irNSCs: • 200.000 IMR90 human fibroblasts infected with the lentiviruses for different genes combination (multiplicity of infection (M.O.I.) used for each single lentivirus 30) and the reporter nestin GFP lentivirus (M.O.I. used 10) in an eppendorf with 300 μl induction medium with polybrene (hexadimethrine bromide, Sigma) 4 μg/ml. • Incubate at room temperature for 15 min. • Plate the 300 μl in 1.7 ml induction medium in a well of a 6-well-plate tissue treated • Day 1, renew the 2 ml of induction medium/each well • Day 3, harvest of the neurospheres collecting carefully the 2 ml with the floating spheres • Expand the neurospheres2. […]

For `CCCC(CCC)C(=O)[O-].[Na+]` [VPA, 2-propyl-pentanoic acid, monosodium salt], the “increase in number of GFP+ irNSCs per neurosphere” value (Human fibroblasts IMR90 [1]) was 2.1 fold and the “number of neurospheres bigger than 50 μm” value (Human fibroblasts IMR90 [1]) was “did not significantly affect”.
`O=S(=O)(c1cccc2cnccc12)N1CCCNCC1` [Fasudil, 1-(5-Isoquinolinesulfonyl)homopiperazine] was tested, and the generation of neurospheres (human fibroblasts) was “generation of neurospheres (around 50 μm)” and the neurosphere morphology [2] was “better morphology and clear and sharp borders”.
With `COc1ccc(O)c(C(=O)c2ccc(C(=O)N[C@@H]3CCCNC[C@H]3NC(=O)c3cc(C)c(O)c(C)c3)cc2)c1F` [Balanol-like-324 compound, N-{(3R,4R)-4-[4-(2-Fluoro-6-hydroxy-3-methoxy-benzoyl)-benzoylamino]-azepan-3-yl}-4-hydroxy-3,5-dimethyl-benzamide] the “reproducibility of neurosphere generation versus Fasudil” value (Human fibroblasts IMR90 [3]; Balanol-like-324 2 μM vs Fasudil 10 μM, Day 4, STDEV, n=3) was “better reproducibility”, the “increase in efficiency of the neurospheres generation (GFP+ neurospheres bigger than 50 μm) versus Fasudil” value (Human fibroblasts IMR90 [3]; Balanol-like-324 2 μM vs Fasudil 10 μM, Sox2, Bmi1, nestin GFP reporter, Day 4, n=3) was roughly 1.9 fold and the “yield of GFP+ neurospheres” value (Human fibroblasts IMR90 [3]; FIG. 11, Rock kinase inhibitor in induction medium) was “increases the yield”.
